Test systems include ACHN renal; DU-145 prostate; HOP-92 NSCLC; OVCAR-4 ovarian; SNB-19 CNS; 786-0 renal; A549 NSCLC; HL-60(TB) leukemia; U251 CNS; SN12C renal.
Holding throughout (assay): inhibition of tumour cell growth, NCI panel, 48 h

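Step 1: Grow cells in 96-well plates. Step 2: Expose to compound for 48 hours at 5 concentrations. Step 3: Interpolate endpoints linearly; if unreached, use highest concentration. GI50 marks 50% less growth. TGI marks complete inhibition of growth.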

As to `CCN(CC)c1ccc(NC(C(=O)c2ccccc2)c2ccccc2)cc1` (stereo unspecified), the GI50 is 1900 nM in the test on ACHN renal; 2240 nM in the test on DU-145 prostate; 2220 nM with HOP-92 NSCLC; 4.78 µM in the test with OVCAR-4 ovarian; 3.45 µM with SNB-19 CNS; 1830 nM in the test on 786-0 renal. Further, the GI50 in the test with A549 NSCLC is 10.5 µM; in the test on HL-60(TB) leukemia, 3.24 µM; with U251 CNS, 2720 nM. The TGI in the test with ACHN renal came out at 3.82 µM; in the test on DU-145 prostate, 5.08 µM; with HOP-92 NSCLC, 8.21 µM; in the test on OVCAR-4 ovarian, 46.2 µM; in the test with SNB-19 CNS, 19.1 µM; in the test with 786-0 renal, 3.59 µM. Further, the TGI with A549 NSCLC was found to be 54 µM; with HL-60(TB) leukemia it was 20.9 µM; in the test on U251 CNS it was 10 µM.
As to `O=C(O)CSc1n[nH]c(/C=C/c2ccccc2)n1`, the TGI in the test on ACHN renal, with SN12C renal, in the test with HOP-92 NSCLC, in the test with OVCAR-4 ovarian, in the test with SNB-19 CNS and in the test with 786-0 renal was > 100 µM each time. Further, the TGI with A549 NSCLC, in the test with HL-60(TB) leukemia and with U251 CNS was > 100 µM throughout.
Regarding `COc1ccc(CNc2cc(OC)cc(OC)c2)cc1`, the TGI in the test on ACHN renal was > 100 µM; in the test on SN12C renal it was > 100 µM; with HOP-92 NSCLC, > 100 µM; in the test on OVCAR-4 ovarian, > 100 µM; in the test with SNB-19 CNS it was > 100 µM; in the test on 786-0 renal, > 96.2 µM. Further, the TGI in the test with A549 NSCLC, in the test on HL-60(TB) leukemia and in the test on U251 CNS was > 100 µM throughout. In the test with SN12C renal, the GI50 is > 70.1 µM.
`COc1ccc(-c2cc3c4c(nc5ccccc5c4c2)CC(c2cc(OC)c(OC)c(OC)c2)O3)cc1` (stereo unspecified): the GI50 is 1580 nM with ACHN renal; 2.75 µM with SN12C renal; 2960 nM in the test with DU-145 prostate; 1620 nM in the test on HOP-92 NSCLC; 3.3 µM in the test on SNB-19 CNS; 1920 nM in the test on 786-0 renal. Besides, the GI50 was > 100 µM in the test with HL-60(TB) leukemia and 1760 nM in the test with U251 CNS. Moreover, the TGI was 3.11 µM in the test on ACHN renal; > 100 µM with SN12C renal; > 100 µM with DU-145 prostate; 4.71 µM in the test on HOP-92 NSCLC; 12.8 µM with SNB-19 CNS; 3.74 µM with 786-0 renal. The values for the TGI in the test on HL-60(TB) leukemia and in the test with U251 CNS were > 100 µM and 4.83 µM, respectively.
Consider `Nc1ccccc1C#C/C=C\C#Cc1ccc(F)cc1F`, for which the GI50 was 16600 nM with ACHN renal; 12.3 µM in the test on SN12C renal; 12500 nM in the test on DU-145 prostate; 18300 nM in the test with HOP-92 NSCLC; 37.1 µM in the test with OVCAR-4 ovarian; 14700 nM in the test with 786-0 renal. Moreover, the GI50 in the test on A549 NSCLC is 16.8 µM; in the test with HL-60(TB) leukemia, 21.8 µM; with U251 CNS, 13700 nM. For the same compound, the TGI was 32.2 µM in the test with ACHN renal; 27.7 µM in the test with SN12C renal; 33.8 µM with DU-145 prostate; 59.7 µM in the test on HOP-92 NSCLC; > 100 µM in the test with OVCAR-4 ovarian; 28.7 µM with 786-0 renal. Moreover, the TGI with A549 NSCLC is 67.7 µM; in the test with HL-60(TB) leukemia, > 100 µM; with U251 CNS, 26.5 µM.
In the case of `COc1ccc(-c2nc(-c3nc4ccc(F)cc4[nH]3)cc3c2[nH]c2ccccc23)cc1`, the GI50 in the test with ACHN renal was 2870 nM; in the test with SN12C renal, 2.97 µM; in the test on DU-145 prostate, 2990 nM; with OVCAR-4 ovarian, 5.1 µM; with SNB-19 CNS, 2.94 µM; with 786-0 renal, 3330 nM. For the same compound, the GI50 is 2.21 µM with A549 NSCLC, 2.83 µM in the test with HL-60(TB) leukemia and 2420 nM in the test on U251 CNS. The TGI is > 100 µM in the test with ACHN renal; > 100 µM in the test with SN12C renal; 9.65 µM in the test with DU-145 prostate; > 100 µM in the test on OVCAR-4 ovarian; > 100 µM with SNB-19 CNS; > 100 µM in the test with 786-0 renal. The TGI with A549 NSCLC came out at 7.5 µM; with HL-60(TB) leukemia, 7.23 µM; with U251 CNS, 7.26 µM.
For `COc1cc2c(-c3nc4cc(Cl)c(F)cc4s3)cc(=O)oc2c(C)c1OC`, the GI50 in the test on ACHN renal was 1360 nM; with DU-145 prostate it was 1620 nM; in the test on HOP-92 NSCLC, 498 nM; in the test on OVCAR-4 ovarian it was 1.65 µM; in the test with 786-0 renal it was 1020 nM; in the test on U251 CNS it was 1290 nM. Further, the TGI with ACHN renal was found to be 2.81 µM; in the test on DU-145 prostate, 3.05 µM; with HOP-92 NSCLC it was 2.16 µM; with OVCAR-4 ovarian, 3.16 µM; in the test with 786-0 renal, 2.21 µM; in the test with U251 CNS, 2.66 µM.
Take `O=S(=O)(Nc1ccc(-c2nc(-c3cccc(OCCN4CCOCC4)c3)c(-c3ccnc(Br)c3)[nH]2)cc1)c1ccccc1`: the GI50 with ACHN renal is 2990 nM; with SN12C renal, 5.37 µM; in the test on DU-145 prostate it was 5640 nM; with HOP-92 NSCLC it was 2410 nM; in the test on OVCAR-4 ovarian it was 4.16 µM; in the test with SNB-19 CNS, 6.07 µM. Also, the GI50 in the test on 786-0 renal is 2370 nM; in the test on A549 NSCLC, 3.35 µM; with U251 CNS it was 2920 nM. Besides, the TGI in the test on ACHN renal is > 100 µM; with SN12C renal, > 100 µM; with DU-145 prostate, > 100 µM; in the test with HOP-92 NSCLC it was 8.18 µM; in the test on OVCAR-4 ovarian, > 100 µM; in the test with SNB-19 CNS, > 100 µM. The TGI in the test on 786-0 renal is 7.96 µM; with A549 NSCLC it was > 100 µM; in the test with U251 CNS it was 46 µM.
On to `CC1OCC2OC(C)OC(C3C4=C(CC(C)(C)CC4=O)OC4=C3C(=O)CC(C)(C)C4)C2O1` (stereo unspecified), for which the TGI in the test with ACHN renal, with SN12C renal, in the test with DU-145 prostate, in the test with HOP-92 NSCLC, with SNB-19 CNS and with 786-0 renal was > 100 µM each time. The TGI in the test on A549 NSCLC and in the test with HL-60(TB) leukemia was > 100 µM in each case.
Take `CN(C)CCC1(C2=CCCC2)CC/C(=C\c2ccc3c(c2)OCO3)C1=O` (stereo unspecified): the TGI in the test on ACHN renal worked out at 29.6 µM; in the test on SN12C renal, 28.8 µM; in the test on HOP-92 NSCLC, 24.4 µM; in the test on OVCAR-4 ovarian, 27.1 µM; in the test on SNB-19 CNS, 43.5 µM; in the test on 786-0 renal it was 26.9 µM. Also, the values for the TGI in the test with A549 NSCLC, with HL-60(TB) leukemia and with U251 CNS were 31.8 µM, 37 µM and 29 µM, respectively.
